Source: patent publication US20040259906A1, “Methods for controlling the proliferation of cells” (priority 2003, published 2004)
Entries after “also recorded” stand apart in the source; their conditions may differ.

Assays:
plants = conditions: background statement; cited from earlier work
β-tubulin = assay: Western blot, β-tubulin expression in T-47D cells; assay type: cell-based, human; conditions: 20 μM
Procedure: (§1) In the following examples, all referenced cell lines were purchased from ATCC. T47D cells were maintained in Dulbecco's Modified Eagle medium (DMEM) (purchased from Life Technologies, Inc.) supplemented with 10% fetal calf serum (purchased from Life Technologies, Inc.), insulin (5 μg/ml), and antibiotics. CRL-5985, CRL-2632 and Raji cells were maintained in RPMI-1640 medium supplemented with 10% fetal calf serum (purchased from Life Technologies, Inc.) and antibiotics. Western blot analysis was performed by using phospho-serine 807/811-Rb, Rb, cyclin D1, cyclin D3, cdk-2, cdk-4, bcl-2, phospho-p38, bax, bak, PARP (cell signaling technology), MCL-1 (purchased from Biosource International) and beta-tubulin antibodies (purchased from Becton-Dickenson). Proteins were separated using an 8-10% SDS-polyacrylamide gel electrophoresis (SDS-PAGE), transferred to Immobilon-P membranes and immunoblotted with antibodies using the ECL detection system.
(§2) Hyperphosphorylation of Rb is a critical process and component for regulating the cell cycle. The phosphorylation of Rb enables cells to pass through particular cell cycle checkpoints and to enter the S phase of cell cycle. […] Similarly, expression of β-tubulin and phosphorylation of p38 MAPK were unaffected.

[1] = test system: CRL-2632 diffuse large B-cell lymphoma cells; assay: Apoptosis / PARP cleavage immunoblot in CRL-2632 cells; assay type: cell-based, human; conditions: for growth arrest and apoptosis: CRL-2632, synthetic coronatine analog 0.5 mM (FIG. 15)
Procedure: as §1
Regulated cell apoptosis is essential for the development and maintenance of the immune system. The highly regulated anti-apoptotic MCL-1 protein appears to enhance short-term survival and functions in genotoxic cell death. […] Thus, deletion of MCL-1 during early lymphocyte differentiation increases apoptosis and arrests the development of B and T-lymphocytes. In this regard, one hallmark of apoptosis is activation of the caspases (e.g., caspase-3, caspase-6, and caspase-7). Activation of caspases leads to the cleavage of a […] PARP protein into an 89-kDa fragment.
Cells were incubated in the presence of 12-oxo-PDA (20 μM) for between one and six hours. The cells were then washed and lysed to extract total proteins. Thereafter, 30 μg extracts were resolved on 8% SDS-PAGE gel and probed with anti-PARP, anti-MCL-1, anti-bcl-2, anti-bax and anti-bak antibodies. […] Similarly, FIG. 13 illustrates the effects of 12-oxo-PDA treatment on apoptosis related proteins (i.e., Bcl-2, MCL-1, Bax and Bak proteins). […]

p38 MAPK = assay: Western blot, p38 MAPK phosphorylation in T-47D cells; assay type: cell-based, human; conditions: 20 μM
Procedure: as §1, §2

[2] = test system: Burkitt's lymphoma cells (Raji); assay: Growth arrest and apoptosis in Raji cells; assay type: cell-based; conditions: synthetic coronatine analog 0.5 mM (FIG. 15)
Procedure: as §1
(§3) CRL-2632 diffuse large B-cell lymphoma cells (and Burkitt's lymphoma cells (“Raji”)) were treated with 12-oxo-PDA and a synthetic coronatine analog (0.5 mM).

Bak = assay: Immunoblot, Bak expression in CRL-2632 cells; assay type: cell-based, human; conditions: CRL-2632, 20 μM, one to six hours (FIG. 13)
Procedure: as §1
(§4) Cells were incubated in the presence of 12-oxo-PDA (20 μM) for between one and six hours. The cells were then washed and lysed to extract total proteins. Thereafter, 30 μg extracts were resolved on 8% SDS-PAGE gel and probed with anti-PARP, anti-MCL-1, anti-bcl-2, anti-bax and anti-bak antibodies. […] Similarly, FIG. 13 illustrates the effects of 12-oxo-PDA treatment on apoptosis related proteins (i.e., Bcl-2, MCL-1, Bax and Bak proteins).

cancer cells = assay: Observations on treated cancer cells (Oil Red O staining, removal from culture medium); assay type: cell-based
Excerpt: Rather, it appears that 12-oxo-PDA (and the related compounds) irreversibly interferes with the cellular mechanisms involved in cell growth, differentiation and the interaction between the cells with the extracellular matrix.

MCL-1 protein = assay: Immunoblot, MCL-1 expression in CRL-2632 cells; assay type: cell-based, human; conditions: for expression of MCL-1 protein: CRL-2632, synthetic coronatine analog 0.5 mM (FIG. 15)
Procedure: as §1, §4, §3

cyclin D1 = assay: Western blot, cyclin D1 expression in T-47D cells; assay type: cell-based, human; conditions: 20 μM, Western blot (FIG. 9)
Procedure: as §1, §2

Bax = assay: Immunoblot, Bax expression in CRL-2632 cells; assay type: cell-based, human; conditions: CRL-2632, 20 μM, one to six hours (FIG. 13)
Procedure: as §1, §4

p27 mRNA = assay: Real-time RT-PCR in T-47D cells, p27; assay type: cell-based, human; conditions: 25 uM, 48 hours, vs ethanol (FIG. 11)
Procedure: (§5) For real-time RT-PCR experiments T-47D cells were treated with ethanol (control) or with 25 uM 12-OPDA for 48 hours. Total RNA was isolated using TRIzol reagent (Invitrogen, Carlsbad, Calif.) followed by purification on RNeasy columns (Qiagen, Palo Alto, Calif.). For quantitative real-time RT-PCR analyses, total RNA from each sample was reverse transcribed with MuLV reverse transcriptase (Applied Biosystems, Foster City, Calif.) and random hexamer primers. The SYBR Green PCR Kit (Applied Biosystems) was used for quantitative real-time RT-PCR analysis. The primers for human ubuquitin, cyclin D1, p27 and c-fos were designed using Primer Express software (Applied Biosystems). 12-oxo-PDA was purchased from Larodon Fine Chemicals AB, Sweden. Jasmonic acid was purchased from Sigma-Aldrich Co. The indanoyl amino acid conjugate of coronatine (i.e., synthetic 6-azido-1-oxo-indanoyl isoleucine) was obtained from Dr. Wilhelm Boland (Max Planck Institute, Germany).
(§6) T-47D cells were exposed to 12-oxo-PDA in an effort to determine the effect of 12-oxo-PDA on gene expression. FIGS. 10, 11 and 12 show 12-OPDA mediated regulation of cyclin D1, p27 and c-fos mRNA levels, respectively, in T-47D cells compared to ethanol treatment alone. […] Thus, it appears that 12-oxo-PDA has a direct regulatory/inhibitory effect on the cyclin D1 and Rb protein. […]

MCL-1 = MCL-1 expression in Raji cells; assay type: cell-based; conditions: synthetic coronatine analog 0.5 mM (FIG. 15)
Procedure: as §1, §3

[3] = test system: retinoblastoma tumor suppressor protein (Rb); assay: Western blot, Rb phosphorylation in T-47D cells; assay type: cell-based, human; conditions: 20 μM
Procedure: as §1, §2

[4] = test system: T-47D human breast ductal adenocarcinoma cells; assay: Cell growth and cell number of breast cancer cells; assay type: cell-based; conditions: for cell growth arrest and cell death: summary statement, dose dependent
Procedure: as §1
T-47D human breast ductal adenocarcinoma cells were treated with 12-oxo-PDA and measured at three and eight-day intervals.
(§7) Cell lines CRL-2632 (B-cell lymphoma cells), CRL-5985 (human lung adenocarcinoma cells) and T-47D (human breast ductal adenocarcinoma cells) were exposed to 12-OPDA over an eight-day period. Cell viability and cell growth were measured versus controls.
(§8) The effects on cell growth and number for T-47D human breast cancer cells and CRL-2632 human malignant diffuse large B-cell lymphoma cells following treatment with 12-oxo-PDA and jasmonic acid (“JA”) over a four-day period were measured.

[5] = test system: CRL-5985 (human lung adenocarcinoma cells); assay: Cell viability, trypan blue exclusion assay; assay type: cell-based; conditions: CRL-5985, eight-day period, trypan blue (FIG. 5)
Procedure: as §1, §7

[6] = test system: T-47D (human breast ductal adenocarcinoma cells); assay: Cell viability, trypan blue exclusion assay; assay type: cell-based; conditions: eight-day period, trypan blue (FIG. 5)
Procedure: as §1, §7

[7] = test system: CRL-2632 human malignant diffuse large B-cell lymphoma cells; assay: Cell growth, cell number and morphology of lymphoma cells; assay type: cell-based; conditions: for cell growth arrest and cell death: CRL-2632, summary statement, dose dependent
Procedure: as §1, §7, §8, §3

cyclin D1 mRNA = assay: Real-time RT-PCR in T-47D cells, cyclin D1; assay type: cell-based, human; conditions: 25 uM, 48 hours, relative to untreated (ethanol) cells (FIG. 10)
Procedure: as §5, §6

Bcl-2 = assay: Immunoblot, Bcl-2 expression in CRL-2632 cells; assay type: cell-based, human; conditions: CRL-2632, 20 μM, one to six hours (FIG. 13)
Procedure: as §1, §4

C-FOS mRNA = assay: Real-time RT-PCR in T-47D cells, c-fos; assay type: cell-based, human; conditions: 25 uM, 48 hours, vs ethanol (FIG. 12)
Procedure: as §5, §6

[8] = test system: CRL-2632 (B-cell lymphoma cells); assay: Cell viability, trypan blue exclusion assay; assay type: cell-based, human; conditions: CRL-2632, eight-day period, trypan blue (FIG. 5)
Procedure: as §1, §7

tubulin = assay: Tubulin polymerization in CRL-2632 cells (soluble/insoluble fractions, Western blot); assay type: cell-based, human; conditions: CRL-2632, 20 μM, one to six hours (FIG. 16)
Procedure: as §1
The increase in insoluble tubulin fractions indicates polymerization of tubulin in treated cells.

[9] = test system: CRL-5985 human lung adenocarcinoma cells; assay: Cell growth, cell number and morphology of lung cancer cells; assay type: cell-based; conditions: for cell growth arrest and cell death: CRL-5985, summary statement, dose dependent
Procedure: as §1
CRL-5985 human lung adenocarcinoma cells were treated with 12-oxo-PDA and measured at three and eight-day intervals.
Lung cancer cells were treated with concentrations of 12-oxo-PDA ranging from 15 μM to 50 μM (versus an untreated control sample).
as §7

[10] = CRL-2632, four-day period (FIG. 8)

CC[C@H]1C=C(C(=O)N[C@@]2(C(=O)O)C[C@@H]2CC)[C@H]2CCC(=O)[C@H]2C1 (stereo in doubt) [Coronatine]
activation of plant stress signaling (volatile emission, tendril coiling) (plants): can activate the stress signaling processes in plants

CC/C=C\C[C@@H]1C(=O)C=C[C@@H]1CCCCCCCC(=O)O [Formula 12-oxo-PDA, 12-oxo-phytodienoic acid]
expression of β-tubulin (β-tubulin): unaffected | cleavage of PARP ([1]; CRL-2632, 20 μM, one to six hours, immunoblot): time-dependent cleavage of PARP | growth arrest and apoptosis [1]: arrest growth and induce apoptosis | phosphorylation of p38 MAPK (p38 MAPK): unaffected | growth arrest and apoptosis [2]: arrest growth and induce apoptosis | expression of Bak (Bak): no effect | lipid accumulation in the cytoplasm (cancer cells; Oil Red O staining): resulted in lipid accumulation in the cytoplasm | cell growth after removal of compound from culture medium (cancer cells; washout): did not restore cell growth | expression of MCL-1 (MCL-1 protein; CRL-2632, 20 μM, one to six hours (FIG. 13)): inhibited the expression of MCL-1 | expression of MCL-1 protein (MCL-1 protein): down-regulated expression of MCL-1 | cyclin D1 expression (cyclin D1): inhibition of cyclin D1 expression | expression of Bax (Bax): no effect | p27 mRNA levels (p27 mRNA): no significant changes | expression of MCL-1 (MCL-1): down-regulated expression of MCL-1 | total Rb ([3]; Western blot): remained unchanged | Rb phosphorylation at the 807 and 811 serine residues ([3]; phospho-specific Rb antibody (FIG. 9)): inhibition of the hyperphosphorylation; also recorded: dramatically inhibited | decrease in cell number ([4]; eight-day period, vs untreated samples (FIG. 6)): three-fold | total cell number over treatment period ([4]; four-day period (FIG. 7)): decrease in total cell count | cell growth arrest and cell death [4]: arrests cell growth and induces cell death | cell growth and accumulation ([4]; three and eight-day intervals, vs untreated control (FIG. 1)): significant decrease in cell growth and accumulation | cell viability [5]: significant inhibitory effect | cell viability [6]: significant inhibitory effect | decrease in total cell number ([7]; CRL-2632, eight-day period, vs untreated samples (FIG. 6)): ten-fold | total cell number over treatment period [7, 10]: decrease in total cell count | cell growth arrest and cell death [7]: arrests cell growth and induces cell death | morphological changes ([7]; CRL-2632, two and eight-day intervals (FIG. 4)): morphological changes | decrease in cyclin D1 mRNA levels (cyclin D1 mRNA): greater than twenty-fold | expression of Bcl-2 (Bcl-2): no effect | C-FOS mRNA levels (C-FOS mRNA): no significant changes | cell viability [8]: particularly effective | tubulin polymerization (soluble vs insoluble tubulin fractions) (tubulin): induces tubulin polymerization | decrease in cell number ([9]; CRL-5985, eight-day period, vs untreated samples (FIG. 6)): five-fold | cell growth arrest and cell death [9]: arrests cell growth and induces cell death | morphological changes ([9]; CRL-5985, three and eight-day intervals (FIG. 2)): ceased three-dimensional growth patterns and became more diffuse and single layered | cell growth ([9]; CRL-5985, three and eight-day intervals, vs control (FIG. 2)): significant decrease in cell growth | cell growth, concentration dependence ([9]; lung cancer cells, 15 μM to 50 μM, eight days (FIG. 3)): decrease in cell growth proportional to the concentration

CC/C=C\C[C@H]1C(=O)CC[C@@H]1CC(=O)O [jasmonic acid, Jasmonic acid, reference compound]
growth inhibition relative to untreated control ([4]; four-day period (FIG. 7)): some growth inhibition | total cell number over treatment period ([4]; four-day period (FIG. 7)): net increase in total tumor cell number | cell growth arrest and cell death [4]: fails to be as effective | growth inhibition relative to untreated control [7, 10]: some growth inhibition | total cell number over treatment period [7, 10]: net increase in total tumor cell number | cell growth arrest and cell death [7]: fails to be as effective | cell growth arrest and cell death [9]: fails to be as effective

CC[C@H](C)[C@H](NC(=O)c1cc(N=[N+]=[N-])cc2c1CCC2=O)C(=O)OC [synthetic coronatine]
growth arrest and apoptosis [1]: arrest growth and induce apoptosis | growth arrest and apoptosis [2]: arrest growth and induce apoptosis | expression of MCL-1 protein (MCL-1 protein): down regulate the expression of the MCL-1 protein | expression of MCL-1 (MCL-1): down-regulated expression of MCL-1 | activation of plant stress signaling (volatile emission, tendril coiling) (plants): can induce volatile emissions and/or tendril coiling | growth of CRL-2632 cells (growth ratio over ethanol control) ([7]; CRL-2632 (FIG. 14)): inhibit growth
